Residues, ends and D or L forms follow the SMILES beside them.
Tests used:
PC12 cells = test: Sulforhodamine B (SRB) cell viability assay; assay type: cell-based
Protocol: Wild-type PC12 cell were provided by Sigma-Aldrich (St. Louis, MO). The culture was routinely plated in 100 mm dishes (Corning) coated with collagen (2 μg/cm^2) and maintained in growth medium with Minimum Essential Medium Eagle (MEM) supplemented with heat-inactivated 10% horse serum (HS) and 5% foetal bovine serum (FBS), 10 mM HEPES, 2 mM L-Glutamine and 1:400 Penicillin/streptomycin solution. Cells were maintained at 37° C. in a humidified atmosphere 5% CO2 and the medium was replaced every 2 days. For splitting, cells were dislodged from the dish using a pipette with medium, with a portion of these replated onto new cultured dishes. Cells were used between passages 12 and 25.
The cell viability assay used was the sulforhodamine B (SRB) colorimetric assay for toxicity screening. The day before of the experiment cells were seeded onto collagen-coated 96-well plates in a concentration of 40,000 cells/well. Cell concentration was determined by the Fuchs-Rosenthal chamber. […] After treatment, medium was replaced and cells were fixed by adding 100 μl of 10% Trichloroacetic Acid (TCA) for 1 h at 4° C. Thereafter, cells were washed with H2O and stained with 100 μl of a 0.057% SRB solution in 1% Acetic acid (HAc) for 30 minutes at room temperature. After staining cells were washed with 1% HAc for removing the excess of SRB and then incubated with 200 μl of 10 mM Tris base (pH 10.5) and shake it for 5 minutes to solubilise the protein-bound dye. Measurement of the absorbance took place in a VMax Kinetic Microplate Reader (Molecular Devices) at 490 nm.

[1] = biological target: T1, acetylcholinesterase (AChE) (Rattus norvegicus, UniProt P37136); test: Acetylcholinesterase enzymatic activity assay (Ellman reagent); assay type: biochemical
T1 construct: endogenous in cells; host or cells: PC12 cells (released enzyme in the supernatant)
T1 sequence (P37136 32-614): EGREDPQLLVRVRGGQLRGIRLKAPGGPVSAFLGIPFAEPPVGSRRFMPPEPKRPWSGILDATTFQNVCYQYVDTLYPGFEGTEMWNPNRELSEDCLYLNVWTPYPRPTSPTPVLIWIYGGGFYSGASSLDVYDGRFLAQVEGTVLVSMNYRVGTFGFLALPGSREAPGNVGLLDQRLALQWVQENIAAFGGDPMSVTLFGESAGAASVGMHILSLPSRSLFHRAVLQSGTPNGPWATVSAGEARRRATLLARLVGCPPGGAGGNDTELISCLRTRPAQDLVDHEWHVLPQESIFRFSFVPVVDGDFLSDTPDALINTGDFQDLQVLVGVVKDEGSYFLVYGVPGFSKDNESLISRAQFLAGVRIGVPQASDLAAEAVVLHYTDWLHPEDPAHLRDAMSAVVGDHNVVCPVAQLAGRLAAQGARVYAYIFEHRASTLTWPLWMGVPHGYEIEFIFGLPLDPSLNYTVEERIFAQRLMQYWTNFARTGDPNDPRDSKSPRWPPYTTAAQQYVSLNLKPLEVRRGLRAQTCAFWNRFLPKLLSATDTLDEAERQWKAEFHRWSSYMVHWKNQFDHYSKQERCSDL
Protocol: AChE activity was measured using the Ellman reagent that measures the presence of thiol groups as a result of AChE activity. Cells were plated the day before the experiment as for the cell viability assay. Cells were treated with different concentrations of Cyclic T14 (0.1-100 μM) and T30, T14 and Aβ 10 μM alone or combined with Cyclic T14 (0.1 and 0.7 μM). […] The Ellman reagent was prepared as a mixture of the 3 solutions in a ratio 33(A):3(B):4(C). Absorbance measurements were taken at regular intervals (3, 10, 30 and 60 mins) across experiments at 405 nm.
The inventor next decided to confirm whether or not Cyclic T14 affects the enzymatic activity of acetylcholinesterase (AChE). AChE enzymatic activity was measured using the acetylcholinesterase activity assay.

[2] = test system: rat model for hemi-Parkinsonism; test: Paw placement test (cylinder test) after 6-OHDA lesion; assay type: in vivo; conditions: day 2: two days post 6-OHDA, one day after NBP-14 injection via cannula into MFB; p<0.05 vs 6-OHDA vehicle
Protocol: Unlike animal models for Alzheimer's disease, the rat model for hemi-Parkinsonism is very well established and readily quantifiable. Accordingly, a unilateral intra striatum injection of the T30 was administered to observe any behavioural effects of the toxin. In a subsequent experiment, the potential protective effects of NBP14 were observed against the well-known neurotoxin 6-hydroxydopamine (6-OHDA), which led to DA neuron loss on the injected side whilst sparing the contralateral DA neurons. NBP-14 was administered via implanted cannula into the medial forebrain bundle (MFB). 6-hydroxydopamine was injected at 10 mg/kg.
Animals are anaesthetized using Ketamine (10%; 0.1 ml/kg body weight) and Xylazine (2%; 0.01 ml/kg). The animals are then stereotactically injected into the MFB with 2 μL 6-OHDA at a concentration of 20 mg/ml in 0.02% ascorbic acid. […]
Paw Placement Test (Cylinder Test): This test assesses a rat's independent forelimb use to support the body against the walls of a cylindrical enclosure. […] To perform this test, rats are placed individually in a glass cylinder (21 cm diameter, 34 cm height) and wall exploration is recorded for 3 minutes. […] Wall exploration is expressed in terms of the ratio between the intact (R) and impaired legs (L) and calculated as the values of intact right+both forelimbs divided into the values of impaired left+both forelimbs (R/L). […]

CSCC[C@@H]1NC(=O)[C@H](Cc2ccc(O)cc2)NC(=O)[C@H](CO)NC(=O)[C@H](CO)NC(=O)[C@H](Cc2c[nH]c3ccccc23)NC(=O)[C@H](CCCNC(=N)N)NC(=O)[C@H](Cc2c[nH]cn2)NC(=O)[C@H](Cc2ccccc2)NC(=O)[C@H](CCC(=O)O)NC(=O)[C@H](C)NC(=O)[C@H](CCCCN)NC(=O)[C@H](Cc2c[nH]c3ccccc23)NC(=O)[C@H](Cc2c[nH]cn2)NC(=O)[C@H](C(C)C)NC1=O [Cyclic T14] (cyclo(AEFHRWSSYMVHWK))
protection against non-specific cytotoxic effect of H2O2 (H2O2 alone vs combined) (PC12 cells; H2O2 100 μM + Cyclic T14 100 nM, PC12): no significant difference | threshold dose for full protection against β-amyloid (PC12 cells; PC12, 1 hour): 1 nM | minimum effective concentration against β-Amyloid (10 μM) on cell viability (PC12 cells; PC12, FIG. 8): 1 nM | blocks β-Amyloid at low doses (Table 3 feature) (PC12 cells; ✓ = Dream Drug feature 'Blocks β-Amyloid at low doses 1 nM)'): ✓ | effect on enzyme activity of acetylcholinesterase ([1]; 2 μM): did not affect | effect on AChE activity (Table 3 feature) ([1]; ✓ = Dream Drug feature 'Does not affect AChE activity'): ✓ | R/L ratio of paw placement [2]: 3.62±0.55

Source: patent publication US12139729B2, “Neurodegenerative disorders” (priority 2013, dated 2024)
